Assay: Inhibition of human 20S constitutive proteasome beta-1 using Z-LLE-betaNA as substrate incubated for 15 mins measured for 45 mins by fluorescence assay
C[C@H](NC(=O)Cc1cccc(Oc2ccccc2)c1)C(=O)N[C@@H](C[C@]1(O)C(=O)Nc2ccccc21)C(=O)NCc1ccccc1 gave an IC50 of 40 µM.
C[C@H](NC(=O)[C@H](Cc1ccc(OCc2ccccc2)cc1)NC(=O)OC(C)(C)C)C(=O)N[C@@H](C[C@@]1(O)C(=O)N(C)c2ccccc21)C(=O)NCc1ccccc1 showed an IC50 of 13.4 µM.
Compound C[C@H](NC(=O)[C@H](Cc1ccc(OCc2ccccc2)cc1)NC(=O)OC(C)(C)C)C(=O)N[C@@H](C[C@]1(O)C(=O)Nc2ccccc21)C(=O)NCCc1ccccc1 has an IC50 of 4.9 µM.
Work on C[C@H](NC(=O)[C@H](Cc1ccc(OCc2ccccc2)cc1)NC(=O)OC(C)(C)C)C(=O)N[C@@H](C[C@]1(O)C(=O)Nc2ccccc21)C(=O)NCc1ccc(-c2ccccc2)cc1 yielded an IC50 of 17.6 µM.
In the case of CC(O)[C@@H](NC(=O)c1ccc(OCc2ccccc2)cc1)C(=O)N[C@@H](C[C@]1(O)C(=O)Nc2ccccc21)C(=O)NCc1ccccc1 (stereo not given in full), the IC50 is reported as 31.9 µM.
In the case of CC(C)(C)OC(=O)N[C@@H](Cc1ccc(OCc2ccccc2)cc1)C(=O)N[C@@H](CC(N)=O)C(=O)N[C@@H](C[C@]1(O)C(=O)Nc2ccccc21)C(=O)NCc1ccccc1, the IC50 is reported as 20.1 µM.
Compound C[C@H](NC(=O)[C@H](Cc1ccc(OCc2ccccc2)cc1)NC(=O)OC(C)(C)C)C(=O)N[C@@H](C[C@@]1(O)C(=O)Nc2ccccc21)C(=O)NCc1ccccc1 has an IC50 of 17.2 µM.
Compound NCCCC[C@H](NC(=O)[C@@H](N)Cc1ccc(OCc2ccccc2)cc1)C(=O)N[C@@H](C[C@]1(O)C(=O)Nc2ccccc21)C(=O)NCc1ccccc1 has an IC50 of 13 µM.
Work on C[C@H](NC(=O)[C@H](Cc1ccc(OCc2ccccc2)cc1)NC(=O)OC(C)(C)C)C(=O)N[C@@H](C[C@]1(O)C(=O)Nc2ccccc21)C(=O)NCC(C)(C)C yielded an IC50 of 15.1 µM.
For C[C@H](NC(=O)[C@H](Cc1ccc(OCc2ccccc2)cc1)NC(=O)OC(C)(C)C)C(=O)N[C@@H](C[C@]1(O)C(=O)N(C)c2ccccc21)C(=O)NCc1ccccc1, the IC50 was 11.4 µM.
With C[C@H](NC(=O)c1ccc(OCc2ccccc2)cc1)C(=O)N[C@@H](C[C@]1(O)C(=O)Nc2ccccc21)C(=O)NCc1ccccc1 the IC50 was 35 µM.
For C[C@@H](NC(=O)[C@H](Cc1ccc(OCc2ccccc2)cc1)NC(=O)OC(C)(C)C)C(=O)N[C@@H](C[C@]1(O)C(=O)Nc2ccccc21)C(=O)NCc1ccccc1, the IC50 was 17.1 µM.
With C[C@H](NC(=O)[C@@H](N)Cc1ccc(OCc2ccccc2)cc1)C(=O)N[C@@H](C[C@]1(O)C(=O)Nc2ccccc21)C(=O)NCc1ccccc1 the IC50 was 30 µM.
C[C@H](NC(=O)[C@H](Cc1ccc(OCc2ccccc2)cc1)NC(=O)OC(C)(C)C)C(=O)N[C@@H](C[C@]1(O)C(=O)Nc2ccccc21)C(=O)NC(c1ccccc1)c1ccccc1 gave an IC50 of 2.2 µM.
Work on C[C@H](NC(=O)[C@H](Cc1ccc(OCc2ccccc2)cc1)NC(=O)OC(C)(C)C)C(=O)N[C@@H](C[C@]1(O)C(=O)Nc2ccccc21)C(=O)NCc1cccc2ccccc12 yielded an IC50 of 2.14 µM.

Source: BindingDB's records for doi:10.1016/j.ejmech.2018.01.013 (University of Rennes 1, 2018)
